Data reported in patent publication US7772179B2, “Photodynamic therapy using chemiluminescence and a ligand-photosensitiser conjugate” (priority 2005, dated 2010).

Key:
FL cells [1] = assay: LTC cytotoxicity assay (PDT with ambient fluorescent light), trypan blue exclusion; type: cell-based
Method: (§1) (C); 0.5-1×10^5 cells/ml were cultured for 2 hr in the dark in medium alone or containing Hp or Tf-Hp (0-3 μM), washed, exposed to ambient fluorescent light for 16 hrs at room temperature and then re-cultured in full medium for 24 hrs. Cell viability was assessed by trypan blue exclusion. The data represent the mean and standard deviation from at least 3 experiments;
(§2) Late log-phase cells were washed with DMEM pre-warmed to 37° C. and cultured at 0.5-1×10^5 cells/ml either alone or with increasing concentrations of Tf-Hp LTC for 2 hrs at 37° C. in 6% CO2. Cells were then washed with DMEM, exposed to ambient fluorescent light (fluence rate=0.5 mW/cm^2) for 12-16 hours and then re-cultured in full medium for 24 hrs. […] Experiments were repeated at least three times.

K562 cells = assay: as above; type: cell-based, Human; details: K-562 cells, external ambient fluorescent light
Method: as §1, §2

FL cells [2] = details: in the dark

Row | Structure (SMILES) | maximum cytotoxicity (LDMAX) (FL cells [1]; FL cells, external ambient fluorescent light) [%] | sensitivity of FL cells relative to K-562 at LDMAX (FL cells [1]; free Hp treatment, FL versus K-562) | maximum activity (cytotoxicity) (FL cells [1]; optimization of the LTC cytotoxicity assay, about 2 hr exposure, cell line not stated) [%] | maximum cytotoxicity (LDMAX) (K562 cells) [%] | maximum cytotoxicity together with luminol (FL cells [2]; together with 10 μM luminol, no external light) [%] | cytotoxicity, luminol alone (FL cells [2]; 10 μM luminol, no Ps)
1 | CC1=C(CCC(=O)O)c2cc3[nH]c(cc4nc(cc5[nH]c(cc1n2)c(C)c5C(C)O)C(C)=C4C(C)O)c(C)c3CCC(=O)O (stereo not drawn) [Hp, hematoporphyrin] | 90 | 16.6 | 24 | 90 | 30 | 
2 | Nc1cccc2c(=O)[nH][nH]c(=O)c12 [luminol, 5-amino-2-3-dihydro-1,4-phtalazinedione] |  |  |  |  |  | about 15%
